By EC50 is commonly meant the concentration that produces a half-maximal response.

The structures appear in SMILES notation. Read-outs that look alike come from different tables or passages of the source.

A short description of data set [1]: relative lipophylia (RM) by reverse phase thin layer chromatography. Format: physicochemical. The settings on record: rp-tlc, acetone/water 2:1. The procedure:
The lipophylic character of the synthesized compounds was evaluated with reverse phase, thin layer chromatography.
The non-polar stationary phase is represented by plates of Merck 60 F254 silanized silica gel, whereas the polar phase consists of an acetone/water mixture (2:1).
The compounds were solubilized in chloroform (3 mg/ml).
The RM values were calculated from the average experimental values of RF, obtained from three chromatograms using the formula: […]
Higher values of RM corresponding to lower values of RF indicate more lipophylic compounds.

The test system of another data set is HIV. Briefly: HIV-induced cytopathogenicity in human T4-lymphocyte cell line (CEM). Format: cell-based. The settings on record: for EC50: Human immunodeficiency virus 1, CCRF-CEM, read-out: EC50 (50% reduction of the viral cytopathic effect); for TI50 (therapeutic index): IC50/EC50 ratio. The procedure: (§1) For their effects on HIV-induced cytopathogenicity in human T4 -lymphocyte cell line (CEM), the compounds of the present invention were evaluated according to NIH procedures as described by R. Vince et al., Biochem. Biophys.Res.Comm., 156, 1046, 1988 and by O. S. Weislow et al. J. Natl.Canc. Inst., 81. 577,1988.
It was possible to evaluate for many compounds of the invention:
a) the effective concentration 50% (EC50), which represents the concentration of the tested compound resulting in 50% reduction of the viral cytopathic effect.
c) the therapeutic index TI50 which is determined as the IC50 /EC50 ratio.
Only substances able to cause at least a 50% or greater reduction of viral cytopathic effect are kept in consideration for further investigation.
(§2) The methods, the test conditions, the evaluation criteria of the anti-HIV activity in vitro are described by Weislow, O. W., Kieser, R., Fine, D., Bader, J., Shoemaker, R. H., Boyd, M. R.: New soluble-formazan assay for HIV-1 cytopathic effects: application to high-flux screening of synthetic and natural products for AIDS-antiviral activity. J. Nati, Cancer Inst. 81:577-586,1989.

The subject of data set [2] is human T4-lymphocyte cell line (CEM). Description: growth inhibition of normal uninfected cells (CEM). The settings on record: CCRF-CEM, read-out: IC50 (toxic concentration, 50% growth inhibition of normal uninfected cells). The format is cell-based. The method, then:
as §1
b) the inhibitory concentration 50% (IC50) which represents the toxic concentration of drug resulting in 50% growth inhibition of normal uninfected cells.
as §2

The mark [3] stands for this setting: silanized silica gel Merck 60 F254 plates, average of three chromatograms, read-out: RM (relative lipophylia).

`Cc1ccccc1C1SCc2nc3ccccc3n21` (stereo not shown) [X]: in data set [1], the chromatographic logP is -0.452. Same read-out and setting: under `Fc1cccc(C2SCc3nc4ccccc4n32)c1F` (stereo not shown) [XIX] stands -0.452. On the same count and under the same terms, in the case of `Clc1ccc(C2SCc3nc4ccccc4n32)cc1` (stereo not shown) [IX] it was -0.402.

In data set [1], `Fc1ccccc1C1SCc2nc3ccccc3n21` (racemic) [IV, (±) 1-(2-fluorophenyl)-1H,3H-thiazole [3,4-a] benzimidazole] had a chromatographic logP of -0.468. Also, the EC50 in the data set with HIV (HIV-infected CEM cells) turned out to be 7.63 µM. In addition, the “TI50 (therapeutic index)” value in the data set on HIV was above 16.5. Further, the IC50 in data set [2] (uninfected CEM cells) is above 126 µM. `Fc1ccc(C2SCc3nc4ccccc4n32)cc1` (stereo not shown) [VI] came in with a chromatographic logP in data set [1] of -0.412. For `N#Cc1cccc(C2SCc3nc4ccccc4n32)c1` (stereo not shown) [XXXIII, 1-(3-cyano-phenyl)-1H,3H-thiazole [3,4-a] benzimidazole], the EC50 with HIV (HIV-infected CEM cells) was 2.94 µM. The “TI50 (therapeutic index)” value in the data set on HIV is 13.1. Moreover, the IC50 in data set [2] (uninfected CEM cells) was 38.3 µM. With `FC(F)(F)c1ccc(C2SCc3nc4ccccc4n32)cc1` (stereo not shown) [XVI], the chromatographic logP in data set [1] was -0.387.

`Clc1ccccc1C1SCc2nc3ccccc3n21` (stereo not shown) [VII]: in data set [1], the chromatographic logP is -0.393. Consider `Oc1cccc(C2SCc3nc4ccccc4n32)c1` (stereo not shown) [XVII], for which the chromatographic logP in data set [1] was -0.591. Moreover, the EC50 in the data set with HIV (HIV-infected CEM cells) came out at 114 µM. Moreover, the “TI50 (therapeutic index)” value in the data set with HIV was 1.11. Moreover, the IC50 in data set [2] (uninfected CEM cells) turned out to be 127 µM. In turn, `FC(F)(F)c1ccccc1C1SCc2nc3ccccc3n21` (stereo not shown) [XIV] gave a chromatographic logP in data set [1] of -0.349.

`Fc1cccc(C2SCc3nc4ccccc4n32)c1` (racemic) [V, (±) 1-(3-fluorophenyl)-1H,3H-thiazole [3,4-a] benzimidazole]: the chromatographic logP in data set [1] was -0.434. Further, in the data set with HIV (HIV-infected CEM cells), the EC50 amounted to 5.74 µM. Besides, the “TI50 (therapeutic index)” value in the data set with HIV was determined as 11.8. Moreover, the IC50 in data set [2] (uninfected CEM cells) worked out at 67.4 µM. With `Fc1cccc(F)c1C1SCc2nc3ccccc3n21` (racemic) [XXII, (±) 1-(2,6-difluorophenyl)-1H,3H-thiazole [3,4-a] benzimidazole], the chromatographic logP in data set [1] (setting [3]) was -0.475. Moreover, in the data set with HIV, the EC50 turned out to be 1 µM and the “TI50 (therapeutic index)” value came to 80. In addition, the IC50 in data set [2] was determined as 80 µM. `N#Cc1ccc(C2SCc3nc4ccccc4n32)cc1` (stereo not shown) [XVIII] yielded a chromatographic logP in data set [1] of -0.506. `Fc1cccc(Cl)c1C1SCc2nc3ccccc3n21` (racemic) [XXIX, (±) 1-(2-chloro-6-fluorophenyl)-1H,3H-thiazole [3,4-a] benzimidazole] registered a chromatographic logP in data set [1] of -0.452. In addition, the EC50 with HIV (HIV-infected CEM cells) came out at 0.596 µM. Moreover, in the data set with HIV, the “TI50 (therapeutic index)” value turned out to be 32.8. Further, the IC50 in data set [2] (uninfected CEM cells) stood at 19.6 µM. As for `Fc1ccc(C2SCc3nc4ccccc4n32)cc1F` (stereo not shown) [XXIII], in data set [1], the chromatographic logP is -0.43.

`O=[N+]([O-])c1ccccc1C1SCc2nc3ccccc3n21` (stereo not shown) [XXXVI, 1-(2-nitro-phenyl)-1H,3H-thiazole [3,4-a] benzimidazole]: the EC50 in the data set on HIV (HIV-infected CEM cells) was determined as 17.2 µM. Further, the “TI50 (therapeutic index)” value in the data set on HIV is recorded as 2.16. In data set [2] (uninfected CEM cells), the IC50 amounted to 37.2 µM. `Brc1ccccc1C1SCc2nc3ccccc3n21` (stereo not shown) [I] yielded a chromatographic logP in data set [1] of -0.41. The same measure, in the same setting: under `Clc1ccc(C2SCc3nc4ccccc4n32)cc1Cl` (stereo not shown) [XXVII] stands -0.362.

Regarding `Brc1cccc(C2SCc3nc4ccccc4n32)c1` (stereo not shown) [II], the chromatographic logP in data set [1] was -0.406. Same read-out and setting: under `O=[N+]([O-])c1cc(C2SCc3nc4ccccc4n32)ccc1Cl` (stereo not shown) [XXXI] stands -0.414; under `Fc1ccc(C2SCc3nc4ccccc4n32)c(F)c1` (stereo not shown) [XX], -0.452; under `Cc1cccc(C2SCc3nc4ccccc4n32)c1` (stereo not shown) [XI], -0.399. With `Clc1cccc(Cl)c1C1SCc2nc3ccccc3n21` (racemic) [XXVI, (±) 1-(2,6-dichlorophenyl)-1H,3H-thiazole [3,4-a] benzimidazole], the chromatographic logP in data set [1] is -0.402. In the data set with HIV (HIV-infected CEM cells), the EC50 came out at 0.257 µM. Moreover, the “TI50 (therapeutic index)” value in the data set with HIV was determined as 86.8. In addition, the IC50 in data set [2] (uninfected CEM cells) stood at 22.3 µM. In data set [1], `O=[N+]([O-])c1ccc(Cl)cc1C1SCc2nc3ccccc3n21` (racemic) [XXXII, (±) 1-(2-nitro-5-chlorophenyl)-1H,3H-thiazole [3,4-a] benzimidazole] displayed a chromatographic logP of -0.387.

In turn, `Brc1ccc(C2SCc3nc4ccccc4n32)cc1` (stereo not shown) [III] returned a chromatographic logP in data set [1] of -0.43. As for `Clc1cc(Cl)cc(C2SCc3nc4ccccc4n32)c1` (stereo not shown) [XXVIII], the chromatographic logP in data set [1] (setting [3]) is -0.337.

Compound `O=[N+]([O-])c1ccc(Cl)c(C2SCc3nc4ccccc4n32)c1` (stereo not shown) [XXX] displayed a chromatographic logP in data set [1] of -0.423. Also, the EC50 with HIV (HIV-infected CEM cells) came out at 15.9 µM. The “TI50 (therapeutic index)” value in the data set on HIV was above 3.42. In addition, the IC50 in data set [2] (uninfected CEM cells) was above 54.4 µM. For the compound `Clc1cccc(C2SCc3nc4ccccc4n32)c1` (stereo not shown) [VIII], the chromatographic logP in data set [1] was -0.428.

Consider `Clc1ccc(C2SCc3nc4ccccc4n32)c(Cl)c1` (stereo not shown) [XXV], for which, in data set [1], the chromatographic logP is -0.329. Same read-out and setting: in the case of `Clc1cccc(C2SCc3nc4ccccc4n32)c1Cl` (stereo not shown) [XXIV] it was -0.355; in that of `COc1ccc(C2SCc3nc4ccccc4n32)cc1` (stereo not shown) [XIII], -0.477. Take `COc1cccc(C2SCc3nc4ccccc4n32)c1` (stereo not shown) [XII]: the chromatographic logP in data set [1] was -0.436.

In turn, `FC(F)(F)c1cccc(C2SCc3nc4ccccc4n32)c1` (stereo not shown) [XV] displayed a chromatographic logP in data set [1] of -0.378.

For the origin of these results see patent publication US5217984A, “1-phenyl substituted-1H, 3H-thiazole [3,4-a] benzimidazoles and pharmaceutical compositions containing them” (priority 1990, dated 1993).
